US20250171426A1, “PYRIMIDINEDIONE-BASED COMPOUNDS AS AXL, C-MET, AND MER INHIBITORS AND METHODS OF USE THEREOF” (CMG Pharmaceutical Co., Ltd., priority 2022, published 2025)

What was measured:
Type in all cases: biochemical
Details in all cases: 10 μM ATP, 60 min, ADP-GLO luminescence
[1] = target: c-MET (Homo sapiens, UniProt P08581); experiment: Enzymatic assay (ADP-Glo kinase reaction), c-MET
Procedure: (§1) All the kinase reactions were performed in 5 μL using tyrosine kinase buffer with 0.2 μg/μL poly (Glu4, Tyr1) substrate, 10 μM ATP, serial dilution of the inhibitor, and incubated at room temperature for 60 min. After the indicated incubation times, 5 μL ADP-GLO™ reagent (Promega, Madison, WI) was added to the reactions and the plate was incubated at room temperature for 40 min. […] All 384-well assay plates were read using a GLOMAX™ Discover Microplate Luminometer from Promega (Madison, WI). To plot, analyze the data and calculate all kinase reaction biochemical values, both Microsoft Excel and Prism from GraphPad 7 Software (La Jolla, CA) were used.

[2] = target: T1, MER (Homo sapiens, UniProt Q12866); experiment: Enzymatic assay (ADP-Glo kinase reaction), MER
T1 sequence (Q12866 21-999): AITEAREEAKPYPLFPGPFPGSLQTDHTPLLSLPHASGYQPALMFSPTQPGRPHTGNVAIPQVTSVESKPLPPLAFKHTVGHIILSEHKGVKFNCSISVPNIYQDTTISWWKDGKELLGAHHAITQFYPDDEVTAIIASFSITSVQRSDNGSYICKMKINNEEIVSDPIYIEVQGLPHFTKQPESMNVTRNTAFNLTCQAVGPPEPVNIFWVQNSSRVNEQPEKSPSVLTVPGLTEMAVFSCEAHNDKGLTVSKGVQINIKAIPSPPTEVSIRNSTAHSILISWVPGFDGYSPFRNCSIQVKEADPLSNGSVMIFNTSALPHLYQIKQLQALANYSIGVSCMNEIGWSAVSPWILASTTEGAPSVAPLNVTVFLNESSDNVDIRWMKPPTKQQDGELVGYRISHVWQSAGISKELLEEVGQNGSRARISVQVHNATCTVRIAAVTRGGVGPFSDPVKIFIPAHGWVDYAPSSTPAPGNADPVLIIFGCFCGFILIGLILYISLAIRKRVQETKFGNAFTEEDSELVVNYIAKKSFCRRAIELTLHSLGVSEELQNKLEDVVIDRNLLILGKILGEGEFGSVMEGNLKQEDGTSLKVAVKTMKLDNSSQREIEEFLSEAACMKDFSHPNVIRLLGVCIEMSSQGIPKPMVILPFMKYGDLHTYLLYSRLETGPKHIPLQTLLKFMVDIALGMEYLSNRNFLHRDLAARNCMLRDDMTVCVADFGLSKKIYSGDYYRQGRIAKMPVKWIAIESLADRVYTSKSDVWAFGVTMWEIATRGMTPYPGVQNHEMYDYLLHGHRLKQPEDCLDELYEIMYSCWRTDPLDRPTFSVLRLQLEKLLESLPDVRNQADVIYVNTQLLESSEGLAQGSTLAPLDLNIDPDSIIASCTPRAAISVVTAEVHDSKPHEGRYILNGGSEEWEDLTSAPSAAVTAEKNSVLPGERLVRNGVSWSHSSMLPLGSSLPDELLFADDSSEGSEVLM
Procedure: (§2) All the kinase reactions were performed in 5 μL using tyrosine kinase buffer with 0.2 μg/μL poly (Glu4, Tyr1) substrate, 10 μM ATP, serial dilution of the inhibitor, and incubated at room temperature for 60 min. After the indicated incubation times, 5 μL ADP-GLO™ reagent (Promega, Madison, WI) was added to the reactions and the plate was incubated at room temperature for 40 min. Then, 10 μL of kinase detection reagent was added and after an incubation time of 40 min, luminescence was recorded and IC50 values were determined (Table 1). All 384-well assay plates were read using a GLOMAX™ Discover Microplate Luminometer from Promega (Madison, WI). To plot, analyze the data and calculate all kinase reaction biochemical values, both Microsoft Excel and Prism from GraphPad 7 Software (La Jolla, CA) were used.
as §2, with “3).” for “1).”

[3] = target: T2, AXL (Homo sapiens, UniProt P30530); experiment: Enzymatic assay (ADP-Glo kinase reaction), AXL
T2 sequence (P30530 26-894): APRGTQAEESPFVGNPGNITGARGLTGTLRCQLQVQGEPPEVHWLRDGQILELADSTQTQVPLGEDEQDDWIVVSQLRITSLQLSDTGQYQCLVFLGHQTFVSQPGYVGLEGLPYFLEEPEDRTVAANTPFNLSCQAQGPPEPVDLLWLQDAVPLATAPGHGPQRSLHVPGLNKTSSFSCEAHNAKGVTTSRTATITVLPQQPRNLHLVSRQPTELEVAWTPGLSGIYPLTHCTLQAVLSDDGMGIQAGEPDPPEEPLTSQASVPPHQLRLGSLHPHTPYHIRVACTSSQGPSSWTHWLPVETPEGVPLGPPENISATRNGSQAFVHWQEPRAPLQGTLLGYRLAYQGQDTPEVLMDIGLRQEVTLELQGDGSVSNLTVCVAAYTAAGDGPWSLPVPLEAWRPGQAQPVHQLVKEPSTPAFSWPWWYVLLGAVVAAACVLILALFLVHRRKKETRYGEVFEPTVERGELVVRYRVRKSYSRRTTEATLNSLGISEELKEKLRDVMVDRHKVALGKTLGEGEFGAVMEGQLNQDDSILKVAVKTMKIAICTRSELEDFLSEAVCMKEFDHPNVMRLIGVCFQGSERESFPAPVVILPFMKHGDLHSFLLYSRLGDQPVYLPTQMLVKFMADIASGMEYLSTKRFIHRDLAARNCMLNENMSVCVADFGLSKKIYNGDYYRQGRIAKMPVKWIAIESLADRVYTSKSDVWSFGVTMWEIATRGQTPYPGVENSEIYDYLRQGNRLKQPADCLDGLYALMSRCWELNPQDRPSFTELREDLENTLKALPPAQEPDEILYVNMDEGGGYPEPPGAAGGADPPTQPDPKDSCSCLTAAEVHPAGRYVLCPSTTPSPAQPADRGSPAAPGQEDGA
Procedure: as §1

Chain of c-MET (P08581 25-1390): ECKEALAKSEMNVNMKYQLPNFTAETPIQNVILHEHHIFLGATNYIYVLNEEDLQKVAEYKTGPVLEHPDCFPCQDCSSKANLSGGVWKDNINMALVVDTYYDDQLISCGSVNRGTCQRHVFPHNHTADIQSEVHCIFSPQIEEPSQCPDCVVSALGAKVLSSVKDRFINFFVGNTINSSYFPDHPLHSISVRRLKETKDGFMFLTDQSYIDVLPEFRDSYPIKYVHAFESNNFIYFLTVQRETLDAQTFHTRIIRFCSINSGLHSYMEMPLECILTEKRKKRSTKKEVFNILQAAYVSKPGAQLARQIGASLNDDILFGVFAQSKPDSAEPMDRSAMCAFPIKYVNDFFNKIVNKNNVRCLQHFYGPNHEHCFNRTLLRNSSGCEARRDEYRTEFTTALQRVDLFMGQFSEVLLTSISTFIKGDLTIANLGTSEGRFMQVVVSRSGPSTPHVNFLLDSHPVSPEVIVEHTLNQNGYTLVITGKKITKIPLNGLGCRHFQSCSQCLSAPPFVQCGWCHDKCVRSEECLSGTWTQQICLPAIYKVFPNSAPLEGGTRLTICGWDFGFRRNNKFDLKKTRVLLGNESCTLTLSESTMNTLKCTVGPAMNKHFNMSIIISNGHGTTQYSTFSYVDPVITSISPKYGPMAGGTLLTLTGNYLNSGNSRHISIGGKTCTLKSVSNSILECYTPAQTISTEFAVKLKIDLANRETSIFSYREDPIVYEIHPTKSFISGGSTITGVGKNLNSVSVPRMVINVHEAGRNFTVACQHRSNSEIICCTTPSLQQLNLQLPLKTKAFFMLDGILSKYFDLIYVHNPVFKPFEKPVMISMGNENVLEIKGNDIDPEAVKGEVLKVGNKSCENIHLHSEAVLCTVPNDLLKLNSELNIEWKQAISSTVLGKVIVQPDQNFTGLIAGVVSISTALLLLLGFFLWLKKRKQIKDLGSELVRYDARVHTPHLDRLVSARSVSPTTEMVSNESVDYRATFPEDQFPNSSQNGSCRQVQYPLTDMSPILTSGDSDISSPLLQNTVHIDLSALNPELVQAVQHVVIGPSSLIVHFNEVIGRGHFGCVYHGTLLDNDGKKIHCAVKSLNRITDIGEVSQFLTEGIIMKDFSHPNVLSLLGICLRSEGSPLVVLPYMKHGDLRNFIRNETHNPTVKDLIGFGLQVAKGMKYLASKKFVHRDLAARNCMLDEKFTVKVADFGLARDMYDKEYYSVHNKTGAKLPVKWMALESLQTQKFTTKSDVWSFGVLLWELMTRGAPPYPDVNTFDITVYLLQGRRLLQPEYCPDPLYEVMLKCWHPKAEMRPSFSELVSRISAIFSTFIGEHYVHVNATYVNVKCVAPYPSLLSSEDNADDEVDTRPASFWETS

| Structure (SMILES) | IC50 [1] | IC50 [2] | IC50 [3] |
| --- | --- | --- | --- |
| CC(C)n1cc(C(=O)Nc2ccc(Oc3ccnc(N)c3C#CC3CCNCC3)c(F)c2)c(=O)n(-c2ccc(F)cc2)c1=O [Example 15, N-(4-(2-amino-3-(piperidin-4-ylethynyl)pyridin-4-yloxy)-3-fluorophenyl)-3-(4-fluorophenyl)-1-isopropyl-2,4-dioxo-1,2,3,4-tetrahydropyrimidine-5-carboxamide] | < 100 nM | < 10 nM | < 10 nM |
| COCCN1CCC(C#Cc2c(Oc3ccc(NC(=O)c4cn(C(C)C)c(=O)n(-c5ccc(F)cc5)c4=O)cc3F)ccnc2N)CC1 [Example 16] | < 10 nM | < 10 nM | < 10 nM |
| CC(C)n1cc(C(=O)Nc2ccc(Oc3ccnc(N)c3C#CCN3CCNCC3)c(F)c2)c(=O)n(-c2ccc(F)cc2)c1=O [Example 17] | < 10 nM | < 10 nM | < 10 nM |
| COCCN1CCN(CC#Cc2c(Oc3ccc(NC(=O)c4cn(C(C)C)c(=O)n(-c5ccc(F)cc5)c4=O)cc3F)ccnc2N)CC1 [Example 18, N-(4-(2-amino-3-(3-(4-(2-methoxyethyl)piperazin-1-yl)prop-1-ylny)pyridin-4-yloxy)-3-fluorophenyl)-3-(4-fluorophenyl)-1-isopropyl-2,4-dioxo-1,2,3,4-tetrahydropyrimidine-5-carboxamide] | < 10 nM | < 10 nM | < 10 nM |
| CC(C)n1cc(C(=O)Nc2ccc(Oc3ccnc(N)c3C#CC(C)(C)N3CCNCC3)c(F)c2)c(=O)n(-c2ccc(F)cc2)c1=O [Example 19, N-(4-(2-amino-3-(3-methyl-3-(piperazin-1-yl)but-1-ynyl)pyridin-4-yloxy)-3-fluorophenyl)-3-(4-fluorophenyl)-1-isopropyl-2,4-dioxo-1,2,3,4-tetrahydropyridmidine-5-carboxamide] | < 1000 nM | < 10 nM | < 10 nM |
| COCCN1CCN(C(C)(C)C#Cc2c(Oc3ccc(NC(=O)c4cn(C(C)C)c(=O)n(-c5ccc(F)cc5)c4=O)cc3F)ccnc2N)CC1 [Example 20, N-(4-(2-amino-3-(3-(4-(2-methoxyethyl)piperazin-1-yl)-3-methylbut-1-ynyl)pyridin-4-yloxy)-3-fluorophenyl)-3-(4-fluorophenyl)-1-isopropyl-2,4-dioxo-1,2,3,4-tetrahydropyrimidine-5-carboxamide] | < 10 nM | < 10 nM | < 10 nM |
| COCCN1CCN(C(=O)CCc2c(Oc3ccc(NC(=O)c4cn(C(C)C)c(=O)n(-c5ccc(F)cc5)c4=O)cc3F)ccnc2N)CC1 [Example 21, N-(4-(2-amino-3-(3-(4-(2-methoxyethyl)piperazin-1-yl)-3-oxopropyl)pyridin-4-yloxy)-3-fluorophenyl)-3-(4-fluorophenyl)-1-isopropyl-2,4-dioxo-1,2,3,4-tetrahydropyrimidine-5-carboxamide] | < 10000 nM | < 1000 nM | < 1000 nM |
| CC(C)n1cc(C(=O)Nc2ccc(Oc3ccnc(N)c3-c3ccccc3)c(F)c2)c(=O)n(-c2ccc(F)cc2)c1=O [Example 22, N-(4-(2-amino-3-phenylpyridin-4-yloxy)-3-fluorophenyl)-3-(4-fluorophenyl)-1-isopropyl-2,4-dioxo-1,2,3,4-tetrahydropyrimidine-5-carboxamide] | < 100 nM | < 100 nM | < 100 nM |
| CC(C)n1cc(C(=O)Nc2ccc(Oc3ccnc(N)c3C#CC3CCN(C)CC3)c(F)c2)c(=O)n(-c2ccc(F)cc2)c1=O [Example 23, N-(4-(2-amino-3-((1-methylpiperidin-4-yl)ethynyl)pyridin-4-yloxy)-3-fluorophenyl)-3-(4-fluorophenyl)-1-isopropyl-2,4-dioxo-1,2,3,4-tetrahydropyrimidine-5-carboxamide] | < 1000 nM | < 10 nM | < 10 nM |
| CC(C)n1cc(C(=O)Nc2ccc(Oc3ccnc(N)c3C#CC(C)(C)N3CCOCC3)c(F)c2)c(=O)n(-c2ccc(F)cc2)c1=O [Example 25, N-(4-(2-amino-3-(3-methyl-3-morpholinobut-1-ynyl)pyridin-4-yloxy)-3-fluorophenyl)-3-(4-fluorophenyl)-1-isopropyl-2,4-dioxo-1,2,3,4-tetrahydropyrimidine-5-carboxamide] | < 10 nM | < 10 nM | < 10 nM |
| CC(C)n1cc(C(=O)Nc2ccc(Oc3ccnc(N)c3C#CCN3CCN(C)CC3)c(F)c2)c(=O)n(-c2ccc(F)cc2)c1=O [Example 26, N-(4-(2-amino-3-(3-(4-methylpiperazin-1-yl)prop-1-ynyl)pyridine-4-yloxy)-3-fluorophenyl)-3-(4-fluorophenyl)-1-isopropyl-2,4-dioxo-1,2,3,4-tetrahydropyrimidine-5-carboxamide] | < 10 nM | < 10 nM | < 10 nM |
| CC(C)n1cc(C(=O)Nc2ccc(Oc3ccnc(N)c3C#CCC3CCNCC3)c(F)c2)c(=O)n(-c2ccc(F)cc2)c1=O [Example 27, N-(4-(2-amino-3-(3-(piperidin-4-yl)prop-1-ynyl)pyridin-4-yloxy)-3-fluorophenyl)-3-(4-fluorophenyl)-1-isopropyl-2,4-dioxo-1,2,3,4-tetrahydropyrimidine-5-carboxamide] | < 10 nM | < 10 nM | < 10 nM |
| COCCN1CCC(CC#Cc2c(Oc3ccc(NC(=O)c4cn(C(C)C)c(=O)n(-c5ccc(F)cc5)c4=O)cc3F)ccnc2N)CC1 [Example 28, N-(4-(2-amino-3-(3-(1-(2-methoxyethyl)piperidin-4-yl)prop-1-ynyl)pyridin-4-yloxy)-3-fluorophenyl)-3-(4-fluorophenyl)-1-isopropyl-2,4-dioxo-1,2,3,4-tetrahydropyrimidine-5-carboxamide] | < 10 nM | < 10 nM | < 10 nM |
